Where only a bound is given, the exact number is not on record here.

Experiment in all cases: KRas binding assay, TR-FRET displacement of Cy5 labelled tracer
Holding throughout (details): 60-minute incubation at room temperature, 1% DMSO, pH 7.5
A general note: In TR-FRET formats the signal depends on donor and acceptor labels being close together.

The target of one assay is T1, KRas G12C (Homo sapiens, UniProt P01116, G12C).
T1 construct: Biotinylated KRas (corresponding to amino acids 1-169, produced at Accelegan Inc.); biotin (biotinylated); purchased Accelegan Inc
The procedure:
(§1) This Example illustrates that exemplary compounds of the present invention bind to KRas and are capable of displacing a labeled tracer ligand occupying the KRas binding site. KRas^WT, KRas^G12A, KRas^G12C, KRas^G12D, KRas^G12R, KRas^G12S, KRas^G12V, KRas^G13D, or KRas^Q61H was used in the assay.
(§2) The ability of a compound to bind to KRas was measured using a TR-FRET displacement assay. Biotinylated KRas (corresponding to amino acids 1-169, produced at Accelegan Inc.) was incubated with custom made Cy5 labelled tracer, terbium streptavidin (Cisbio Inc.) and compound (1% DMSO final) in buffer (50 mM HEPES, pH 7.5, 5 mM MgCl2, 0.005% Tween-20 and 1 mM DTT). After a 60-minute incubation at room temperature, the reaction was measured using a BMG LABTECH CLARIO star Plus via TR-FRET. […] The POC values were fit to a 4-parameter IC50 equation and the IC50 value reported.

The target of the next assay is T2, KRas G12S (Homo sapiens, UniProt P01116, G12S).
T2 construct: Biotinylated KRas (corresponding to amino acids 1-169, produced at Accelegan Inc.); biotin (biotinylated); purchased Accelegan Inc
The procedure:
as §1, §2

Another assay concerns the target T3, KRas WT (Homo sapiens, UniProt P01116).
T3 construct: Biotinylated KRas (corresponding to amino acids 1-169, produced at Accelegan Inc.); biotin (biotinylated); purchased Accelegan Inc
The protocol:
as §1, §2

T1 sequence (P01116 1-169 isoform P01116-2 G12C): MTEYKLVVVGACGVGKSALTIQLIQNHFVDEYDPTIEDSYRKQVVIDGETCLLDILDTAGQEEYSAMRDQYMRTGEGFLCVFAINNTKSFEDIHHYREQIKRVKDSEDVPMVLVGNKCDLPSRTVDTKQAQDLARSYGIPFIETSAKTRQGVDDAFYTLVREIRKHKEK
T3 sequence (P01116 1-169 isoform P01116-2): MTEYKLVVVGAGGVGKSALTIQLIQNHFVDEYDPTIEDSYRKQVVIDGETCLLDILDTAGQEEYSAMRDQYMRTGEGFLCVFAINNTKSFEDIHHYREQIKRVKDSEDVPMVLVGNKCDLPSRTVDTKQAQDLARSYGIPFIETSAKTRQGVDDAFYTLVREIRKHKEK
T2 sequence (P01116 1-169 isoform P01116-2 G12S): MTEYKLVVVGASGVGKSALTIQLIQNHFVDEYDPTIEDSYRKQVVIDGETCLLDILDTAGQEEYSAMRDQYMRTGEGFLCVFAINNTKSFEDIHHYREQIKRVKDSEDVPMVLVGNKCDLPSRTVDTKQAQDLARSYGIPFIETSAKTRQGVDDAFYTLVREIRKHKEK

For the compound `O=C(Oc1ccc(F)c(F)c1)[C@@H]1CCN(c2nc(OCC34CCCN3CCC4)nc3c(F)c(-c4cccc5cccc(F)c45)ncc23)C[C@@H]1O` [Example 37, 3,4-difluorophenyl (3R,4R)-1-(8-fluoro-7-(8-fluoronaphthalen-1-yl)-2-((tetrahydro-1H-pyrrolizin-7a(5H)-yl)methoxy)pyrido[4,3-d]pyrimidin-4-yl)-3-hydroxypiperidine-4-carboxylate], the figures for the concentration for half-maximal inhibition (IC50) on KRas G12C, on KRas G12S and at KRas WT were 7290 nM, 20400 nM and 20400 nM, respectively.
Turning to `O=C(Oc1c(F)cc(F)cc1F)C1CCN(c2nc(OCC34CCCN3CCC4)nc3c(F)c(-c4cccc5cccc(F)c45)ncc23)CC1` [Example 12, 2,4,6-trifluorophenyl 1-(8-fluoro-7-(8-fluoronaphthalen-1-yl)-2-((tetrahydro-1H-pyrrolizin-7a(5H)-yl)methoxy)pyrido[4,3-d]pyrimidin-4-yl)piperidine-4-carboxylate], the IC50 (in general, the concentration that inhibits the measured activity by half) on KRas G12C turned out to be 808 nM; at KRas G12S, 59600 nM; at KRas WT it was 48500 nM.
In the same order, the values of `O=C(Oc1ccc(F)c(F)c1)[C@@H]1[C@@H]2CC[C@H]1CN(c1nc(OCC34CCCN3CCC4)nc3c(F)c(-c4cccc5cccc(F)c45)ncc13)C2` [Example 23, 3,4-difluorophenyl (1R,5S,8r)-3-(8-fluoro-7-(8-fluoronaphthalen-1-yl)-2-((tetrahydro-1H-pyrrolizin-7a(5H)-yl)methoxy)pyrido[4,3-d]pyrimidin-4-yl)-3-azabicyclo[3.2.1]octane-8-carboxylate] are 34800 nM, 61600 nM and 11800 nM.
In the same order, the values of `O=C(Oc1ccccc1F)C1CCN(c2nc(OCC34CCCN3CCC4)nc3c(F)c(-c4cccc5cccc(F)c45)ncc23)CC1` [Example 35, 2-fluorophenyl 1-(8-fluoro-7-(8-fluoronaphthalen-1-yl)-2-((tetrahydro-1H-pyrrolizin-7a(5H)-yl)methoxy)pyrido[4,3-d]pyrimidin-4-yl)piperidine-4-carboxylate] are 321 nM, 47500 nM and 92600 nM.
Turning to `O=C(OCC(F)(F)F)C1CCN(c2nc(OCC34CCCN3CCC4)nc3c(F)c(-c4cccc5cccc(F)c45)ncc23)CC1` [Example 31, 2,2,2-trifluoroethyl 1-(8-fluoro-7-(8-fluoronaphthalen-1-yl)-2-((tetrahydro-1H-pyrrolizin-7a(5H)-yl)methoxy)pyrido[4,3-d]pyrimidin-4-yl)piperidine-4-carboxylate], the 50% inhibitory concentration (IC50) is over 100000 nM on KRas G12C, over 100000 nM on KRas G12S and 39400 nM at KRas WT.
In the case of `COC(=O)[C@@H]1[C@@H]2CC[C@H]1CN(c1nc(OCC34CCCN3CCC4)nc3c(F)c(-c4cccc5cccc(F)c45)ncc13)C2` [Example 19, methyl (1R,5S,8s)-3-(8-fluoro-7-(8-fluoronaphthalen-1-yl)-2-((tetrahydro-1H-pyrrolizin-7a(5H)-yl)methoxy)pyrido[4,3-d]pyrimidin-4-yl)-3-azabicyclo[3.2.1]octane-8-carboxylate], the IC50 on KRas G12C turned out to be 20100 nM; at KRas G12S, 7460 nM; at KRas WT, 2800 nM.
For `O=C(Oc1ccc(F)cc1F)C1CCN(c2nc(OCC34CCCN3CCC4)nc3c(F)c(-c4cccc5cccc(F)c45)ncc23)CC1` [Example 13, 2,4-difluorophenyl 1-(8-fluoro-7-(8-fluoronaphthalen-1-yl)-2-((tetrahydro-1H-pyrrolizin-7a(5H)-yl)methoxy)pyrido[4,3-d]pyrimidin-4-yl)piperidine-4-carboxylate], in that order: 272 nM, 39000 nM and 28700 nM.
As for `N#Cc1cccc(OC(=O)C2CCN(c3nc(OCC45CCCN4CCC5)nc4c(F)c(-c5cccc6cccc(F)c56)ncc34)CC2)c1` [Example 28, 3-cyanophenyl 1-(8-fluoro-7-(8-fluoronaphthalen-1-yl)-2-((tetrahydro-1H-pyrrolizin-7a(5H)-yl)methoxy)pyrido[4,3-d]pyrimidin-4-yl)piperidine-4-carboxylate], the IC50 on KRas G12C was 724 nM; at KRas G12S it was 74700 nM; at KRas WT it was over 100000 nM.
Take `O=C(Oc1c(F)cccc1F)[C@H]1[C@@H]2C[C@H]1CN(c1nc(OCC34CCCN3CCC4)nc3c(F)c(-c4cccc5cccc(F)c45)ncc13)C2` [Example 6, 2,6-difluorophenyl (1R,5S,6s)-3-(8-fluoro-7-(8-fluoronaphthalen-1-yl)-2-((tetrahydro-1H-pyrrolizin-7a(5H)-yl)methoxy)pyrido[4,3-d]pyrimidin-4-yl)-3-azabicyclo[3.1.1]heptane-6-carboxylate]: the half-inhibitory concentration (IC50) is 10600 nM on KRas G12C, 7950 nM at KRas G12S and 8060 nM on KRas WT.
`O=C(Oc1ccc(F)cc1)[C@H]1[C@@H]2C[C@H]1CN(c1nc(OCC34CCCN3CCC4)nc3c(F)c(-c4cccc5cccc(F)c45)ncc13)C2` [Example 8, 4-fluorophenyl (1R,5S,6s)-3-(8-fluoro-7-(8-fluoronaphthalen-1-yl)-2-((tetrahydro-1H-pyrrolizin-7a(5H)-yl)methoxy)pyrido[4,3-d]pyrimidin-4-yl)-3-azabicyclo[3.1.1]heptane-6-carboxylate]: the IC50 on KRas G12C, on KRas G12S and at KRas WT was over 100000 nM in each case.
Consider `O=C(Oc1ccccc1F)[C@@H]1[C@@H]2CC[C@H]1CN(c1nc(OCC34CCCN3CCC4)nc3c(F)c(-c4cccc5cccc(F)c45)ncc13)C2` [Example 25, 2-fluorophenyl (1R,5S,8s)-3-(8-fluoro-7-(8-fluoronaphthalen-1-yl)-2-((tetrahydro-1H-pyrrolizin-7a(5H)-yl)methoxy)pyrido[4,3-d]pyrimidin-4-yl)-3-azabicyclo[3.2.1]octane-8-carboxylate], for which the figures for the 50% inhibitory concentration (IC50) on KRas G12C, at KRas G12S and at KRas WT were 66900 nM, over 100000 nM and 10900 nM, respectively.
On to `Cc1ccn(C(=O)C2CCN(c3nc(OCC45CCCN4CCC5)nc4c(F)c(-c5cccc6cccc(F)c56)ncc34)CC2)n1` [Example 10, (1-(8-fluoro-7-(8-fluoronaphthalen-1-yl)-2-((tetrahydro-1H-pyrrolizin-7a(5H)-yl)methoxy)pyrido[4,3-d]pyrimidin-4-yl)piperidin-4-yl)(3-methyl-1H-pyrazol-1-yl)methanone], for which the half-inhibitory concentration (IC50) came out at 19600 nM at KRas G12C, 4670 nM at KRas G12S and 43900 nM on KRas WT.
Turning to `O=C(Oc1cccnc1)C1CCN(c2nc(OCC34CCCN3CCC4)nc3c(F)c(-c4cccc5cccc(F)c45)ncc23)CC1` [Example 32, pyridin-3-yl 1-(8-fluoro-7-(8-fluoronaphthalen-1-yl)-2-((tetrahydro-1H-pyrrolizin-7a(5H)-yl)methoxy)pyrido[4,3-d]pyrimidin-4-yl)piperidine-4-carboxylate], the results for the IC50 on KRas G12C, on KRas G12S and at KRas WT were 128 nM, 43300 nM and over 100000 nM, respectively.
`O=C(Oc1ccc(C(F)(F)F)cc1)C1CCN(c2nc(OCC34CCCN3CCC4)nc3c(F)c(-c4cccc5cccc(F)c45)ncc23)CC1` [Example 42, 4-(trifluoromethyl)phenyl 1-(8-fluoro-7-(8-fluoronaphthalen-1-yl)-2-((tetrahydro-1H-pyrrolizin-7a(5H)-yl)methoxy)pyrido[4,3-d]pyrimidin-4-yl)piperidine-4-carboxylate]: the IC50 at KRas G12C was 768 nM; at KRas G12S, 68100 nM; at KRas WT it was over 100000 nM.
For the compound `O=C1OCCN1C(=O)C1CCN(c2nc(OCC34CCCN3CCC4)nc3c(F)c(-c4cccc5cccc(F)c45)ncc23)CC1` [Example 2, 3-(1-(8-fluoro-7-(8-fluoronaphthalen-1-yl)-2-((tetrahydro-1H-pyrrolizin-7a(5H)-yl)methoxy)pyrido[4,3-d]pyrimidin-4-yl)piperidine-4-carbonyl)oxazolidin-2-one], the IC50 at KRas G12C is over 100000 nM; on KRas G12S, 72500 nM; on KRas WT it was 73900 nM.
As for `O=C(Oc1ccc(C(F)(F)F)cc1)C1CCCN(c2nc(OCC34CCCN3CCC4)nc3c(F)c(-c4cccc5cccc(F)c45)ncc23)CC1` (stereo not drawn) [Example 50, 4-(trifluoromethyl)phenyl 1-(8-fluoro-7-(8-fluoronaphthalen-1-yl)-2-((tetrahydro-1H-pyrrolizin-7a(5H)-yl)methoxy)pyrido[4,3-d]pyrimidin-4-yl) azepane-4-carboxylate], the IC50 on KRas G12C was determined as 3440 nM; at KRas G12S, 55600 nM.
For `COC(=O)C1CCCN(c2nc(OCC34CCCN3CCC4)nc3c(F)c(-c4cccc5cccc(F)c45)ncc23)CC1` (stereo not drawn) [Example 49, methyl 1-(8-fluoro-7-(8-fluoronaphthalen-1-yl)-2-((tetrahydro-1H-pyrrolizin-7a(5H)-yl)methoxy)pyrido[4,3-d]pyrimidin-4-yl) azepane-4-carboxylate], in that order: 65900 nM and 54800 nM.
Take `O=C(Oc1ccc(F)c(F)c1)C1CCCN(c2nc(OCC34CCCN3CCC4)nc3c(F)c(-c4cccc5cccc(F)c45)ncc23)CC1` (stereo not drawn) [Example 48, 3,4-difluorophenyl 1-(8-fluoro-7-(8-fluoronaphthalen-1-yl)-2-((tetrahydro-1H-pyrrolizin-7a(5H)-yl)methoxy)pyrido[4,3-d]pyrimidin-4-yl) azepane-4-carboxylate]: the IC50 was found to be 2740 nM at KRas G12C and 30100 nM on KRas G12S.

Values taken from patent US20260356856A1, “KRAS G12S AND G12C INHIBITORS” (MIRATI THERAPEUTICS, INC., priority 2023, published 2026).
